Assay [1] concerns the target BRD4-BD12 (1-477) (Homo sapiens (Human), UniProt O60885). Briefly: Alphascreen binding assay BRD4-BD12. To be noted: BRD4(1 2) H4; read-out: Biochemical activity (IC50 μM) BRD4(1 2) H4. The essentials:
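First, compound was preincubated 1 h at room temperature with the His-tagged BRD4 protein (BD1 44-164 or tandem BD12 1-477) and acetylated H4 peptide. Next, donor and acceptor beads were added at 7.5 μg/ml final. After 30 min, AlphaScreen emission was recorded.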

For assay [2], the system named is MV-4-11 cells. Briefly: Oncology cell growth assay MV-4-11 (CellTiter Glo). The class given is cell-based. As to conditions: Homo sapiens, MV4-11, 72 h; MV-4-11, 3d growth; read-out: Cell activity (IC50 μM) MV-4-11 3d-Growth. The procedure, abridged:
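MV-4-11 AML cells (MLL-AF4), 3000 per well, exposed to 8-point 1:3 compound titration from 10 μM top concentration (0.2% DMSO) for 72 h. Viability by CellTiter Glo luminescence, normalized to DMSO controls; pIC50 from four-parameter curve fit.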
In general terms: Cellular ATP, detected with luciferase, serves as a proxy for viable cell number.

Turning to `CC[C@H](c1ccccn1)n1cc(-c2ccc(C(=O)OC)cc2)c2ncc(-c3c(C)noc3C)cc21` [P-0959, methyl 4-[6-(3,5-dimethylisoxazol-4-yl)-1-[(1R)-1-(2-pyridyl)propyl]pyrrolo[3,2-b]pyridin-3-yl]benzoate], the IC50 in assay [1] and in assay [2] was less than 1 µM in each case.
`CC[C@H](c1ccccn1)n1cc(-c2ccc(C(=O)O)cc2)c2ncc(-c3c(C)noc3C)cc21` [P-0960, 4-[6-(3,5-dimethylisoxazol-4-yl)-1-[(1R)-1-(2-pyridyl)propyl]pyrrolo[3,2-b]pyridin-3-yl]benzoic acid]: the IC50 in assay [1] and in assay [2] was less than 1 µM throughout.
Take `CC[C@H](c1ccccn1)n1cc(-c2ccc(CC(=O)OC)cc2)c2ncc(-c3c(C)noc3C)cc21` [P-0961, methyl 2-[4-[6-(3,5-dimethylisoxazol-4-yl)-1-[(1R)-1-(2-pyridyl)propyl]pyrrolo[3,2-b]pyridin-3-yl]phenyl]acetate]: the 50% inhibitory concentration (IC50) in assay [1] and in assay [2] was less than 1 µM each time.
As for `CC[C@H](c1ccccn1)n1cc(-c2ccc(CC(=O)O)cc2)c2ncc(-c3c(C)noc3C)cc21` [P-0962, 2-[4-[6-(3,5-dimethylisoxazol-4-yl)-1-[(1R)-1-(2-pyridyl)propyl]pyrrolo[3,2-b]pyridin-3-yl]phenyl]acetic acid], the half-maximal inhibitory concentration (IC50) in assay [1] and in assay [2] was less than 1 µM in each case.
`CC[C@@H](c1ccccn1)n1cc(I)c2ncc(-c3c(C)noc3C)cc21` [P-0963, 4-[3-iodo-1-[(1S)-1-(2-pyridyl)propyl]pyrrolo[3,2-b]pyridin-6-yl]-3,5-dimethyl-isoxazole]: the IC50 in assay [1] and in assay [2] was less than 1 µM in each case.
Consider `Cc1noc(C)c1-c1cnc2c(-c3ccc(C4(C(=O)O)CC4)cc3)cn(Cc3ccccn3)c2c1` [P-0964, 1-[4-[6-(3,5-dimethylisoxazol-4-yl)-1-(2-pyridylmethyl)pyrrolo[3,2-b]pyridin-3-yl]phenyl]cyclopropanecarboxylic acid], for which the concentration for half-maximal inhibition (IC50) in assay [1] and in assay [2] was less than 1 µM each time.
Consider `COC(=O)Cc1ccc(-c2cn(Cc3ccccn3)c3cc(-c4c(C)noc4C)cnc23)cc1` [P-0965, methyl 2-[4-[6-(3,5-dimethylisoxazol-4-yl)-1-(2-pyridylmethyl)pyrrolo[3,2-b]pyridin-3-yl]phenyl]acetate], for which the IC50 in assay [1] and in assay [2] was less than 1 µM each time.
Consider `CC[C@@H](c1ccccn1)n1cc(-c2ccc(C(=O)OC)cc2)c2ncc(-c3c(C)noc3C)cc21` [P-0966, methyl 4-[6-(3,5-dimethylisoxazol-4-yl)-1-[(1S)-1-(2-pyridyl)propyl]pyrrolo[3,2-b]pyridin-3-yl]benzoate], for which the IC50 in assay [1] and in assay [2] was less than 1 µM throughout.
In the case of `CC[C@@H](c1ccccn1)n1cc(-c2ccc(C(=O)O)cc2)c2ncc(-c3c(C)noc3C)cc21` [P-0967, 4-[6-(3,5-dimethylisoxazol-4-yl)-1-[(1S)-1-(2-pyridyl)propyl]pyrrolo[3,2-b]pyridin-3-yl]benzoic acid], the IC50 in assay [1] and in assay [2] was less than 1 µM throughout.
As to `CC[C@@H](c1ccccn1)n1cc(-c2ccc(C3(C(=O)OC)CC3)cc2)c2ncc(-c3c(C)noc3C)cc21` [P-0968, methyl 1-[4-[6-(3,5-dimethylisoxazol-4-yl)-1-[(1S)-1-(2-pyridyl)propyl]pyrrolo[3,2-b]pyridin-3-yl]phenyl]cyclopropanecarboxylate], the IC50 in assay [1] and in assay [2] was less than 1 µM each time.
`CC[C@@H](c1ccccn1)n1cc(-c2ccc(C3(C(=O)O)CC3)cc2)c2ncc(-c3c(C)noc3C)cc21` [P-0969, 1-[4-[6-(3,5-dimethylisoxazol-4-yl)-1-[(1S)-1-(2-pyridyl)propyl]pyrrolo[3,2-b]pyridin-3-yl]phenyl]cyclopropanecarboxylic acid]: the IC50 in assay [1] and in assay [2] was less than 1 µM in each case.
For `CC[C@@H](c1ccccn1)n1cc(-c2ccc(C#N)cc2)c2ncc(-c3c(C)noc3C)cc21` [P-0970, 4-[6-(3,5-dimethylisoxazol-4-yl)-1-[(1S)-1-(2-pyridyl)propyl]pyrrolo[3,2-b]pyridin-3-yl]benzonitrile], the half-maximal inhibitory concentration (IC50) in assay [1] and in assay [2] was less than 1 µM throughout.
For the molecule `Cc1noc(C)c1-c1cnc2c(-c3cnn(CC(F)(F)F)c3)cn(CC3(C)CCOCC3)c2c1` [P-0971, 3,5-dimethyl-4-[1-[(4-methyltetrahydropyran-4-yl)methyl]-3-[1-(2,2,2-trifluoroethyl)pyrazol-4-yl]pyrrolo[3,2-b]pyridin-6-yl]isoxazole], the IC50 in assay [1] and in assay [2] was less than 1 µM in each case.
As for `Cc1ccc(-c2cn(CC3(C)CCOCC3)c3cc(-c4c(C)noc4C)cnc23)cn1` [P-0972, 3,5-dimethyl-4-[3-(6-methyl-3-pyridyl)-1-[(4-methyltetrahydropyran-4-yl)methyl]pyrrolo[3,2-b]pyridin-6-yl]isoxazole], the half-maximal inhibitory concentration (IC50) in assay [1] and in assay [2] was less than 1 µM each time.
As for `Cc1noc(C)c1-c1cnc2c(-c3ccc(CC(=O)O)cc3)cn(Cc3ccccn3)c2c1` [P-0973, 2-[4-[6-(3,5-dimethylisoxazol-4-yl)-1-(2-pyridylmethyl)pyrrolo[3,2-b]pyridin-3-yl]phenyl]acetic acid], the IC50 in assay [1] and in assay [2] was less than 1 µM each time.
For `COc1ccc(-c2cn([C@@H](C)c3ccccn3)c3cc(-c4c(C)noc4C)cnc23)cn1` [P-0975, 4-[3-(6-methoxy-3-pyridyl)-1-[(1S)-1-(2-pyridyl)ethyl]pyrrolo[3,2-b]pyridin-6-yl]-3,5-dimethyl-isoxazole], the half-maximal inhibitory concentration (IC50) in assay [1] and in assay [2] was less than 1 µM throughout.
As to `CNC(=O)c1ccc(-c2cn([C@@H](C)c3ccccn3)c3cc(-c4c(C)noc4C)cnc23)cc1` [P-0977, 4-[6-(3,5-dimethylisoxazol-4-yl)-1-[(1S)-1-(2-pyridyl)ethyl]pyrrolo[3,2-b]pyridin-3-yl]-N-methyl-benzamide], the IC50 in assay [1] and in assay [2] was less than 1 µM in each case.
For the molecule `CNC(=O)c1ccc(-c2cn([C@@H](C)c3ccccn3)c3cc(-c4c(C)noc4C)cnc23)cn1` [P-0978, 5-[6-(3,5-dimethylisoxazol-4-yl)-1-[(1S)-1-(2-pyridyl)ethyl]pyrrolo[3,2-b]pyridin-3-yl]-N-methyl-pyridine-2-carboxamide], the 50% inhibitory concentration (IC50) in assay [1] and in assay [2] was less than 1 µM each time.
Turning to `Cc1noc(C)c1-c1cnc2c(-c3ccc(NS(C)(=O)=O)cc3)cn([C@@H](C)c3ccccn3)c2c1` [P-0979, N-[4-[6-(3,5-dimethylisoxazol-4-yl)-1-[(1S)-1-(2-pyridyl)ethyl]pyrrolo[3,2-b]pyridin-3-yl]phenyl]methanesulfonamide], the half-inhibitory concentration (IC50) in assay [1] and in assay [2] was less than 1 µM in each case.
Take `CNS(=O)(=O)c1cccc(-c2cn([C@@H](C)c3ccccn3)c3cc(-c4c(C)noc4C)cnc23)c1` [P-0980, 3-[6-(3,5-dimethylisoxazol-4-yl)-1-[(1S)-1-(2-pyridyl)ethyl]pyrrolo[3,2-b]pyridin-3-yl]-N-methyl-benzenesulfonamide]: the half-maximal inhibitory concentration (IC50) in assay [1] and in assay [2] was less than 1 µM throughout.
With `Cc1noc(C)c1-c1cnc2c(-c3cccc(NS(C)(=O)=O)c3)cn([C@@H](C)c3ccccn3)c2c1` [P-0981, N-[3-[6-(3,5-dimethylisoxazol-4-yl)-1-[(1S)-1-(2-pyridyl)ethyl]pyrrolo[3,2-b]pyridin-3-yl]phenyl]methanesulfonamide], the IC50 in assay [1] and in assay [2] was less than 1 µM each time.
As for `CC(=O)Nc1ccc(-c2cn([C@@H](C)c3ccccn3)c3cc(-c4c(C)noc4C)cnc23)cc1` [P-0984, N-[4-[6-(3,5-dimethylisoxazol-4-yl)-1-[(1S)-1-(2-pyridyl)ethyl]pyrrolo[3,2-b]pyridin-3-yl]phenyl]acetamide], the IC50 in assay [1] and in assay [2] was less than 1 µM throughout.
Take `Cc1noc(C)c1-c1cnc2c(I)cn([C@@H](c3ccccn3)C3CC3)c2c1` [P-0985, 4-[1-[(R)-cyclopropyl(2-pyridyl)methyl]-3-iodo-pyrrolo[3,2-b]pyridin-6-yl]-3,5-dimethyl-isoxazole]: the IC50 in assay [1] and in assay [2] was less than 1 µM in each case.
For `CC[C@@H](c1ccccn1)n1cc(-c2ccc(CC(=O)O)cc2)c2ncc(-c3c(C)noc3C)cc21` [P-0986, 2-[4-[6-(3,5-dimethylisoxazol-4-yl)-1-[(1S)-1-(2-pyridyl)propyl]pyrrolo[3,2-b]pyridin-3-yl]phenyl]acetic acid], the half-inhibitory concentration (IC50) in assay [1] and in assay [2] was less than 1 µM in each case.
As to `Cc1noc(C)c1-c1cnc2c(-c3ccc(C(=O)O)cc3)cn([C@@H](c3ccccn3)C3CC3)c2c1` [P-0987, 4-[1-[(R)-cyclopropyl(2-pyridyl)methyl]-6-(3,5-dimethylisoxazol-4-yl)pyrrolo[3,2-b]pyridin-3-yl]benzoic acid], the IC50 in assay [1] and in assay [2] was less than 1 µM throughout.
In the case of `Cc1noc(C)c1-c1cnc2c(I)cn([C@H](c3ccccn3)C3CC3)c2c1` [P-0988, 4-[1-[(S)-cyclopropyl(2-pyridyl)methyl]-3-iodo-pyrrolo[3,2-b]pyridin-6-yl]-3,5-dimethyl-isoxazole], the IC50 in assay [1] and in assay [2] was less than 1 µM in each case.
For `COC(=O)c1ccc(-c2cn([C@H](c3ccccn3)C3CC3)c3cc(-c4c(C)noc4C)cnc23)cc1` [P-0989, methyl 4-[1-[(S)-cyclopropyl(2-pyridyl)methyl]-6-(3,5-dimethylisoxazol-4-yl)pyrrolo[3,2-b]pyridin-3-yl]benzoate], the IC50 in assay [1] and in assay [2] was less than 1 µM throughout.

What is called IC50 is the concentration that inhibits the measured activity by half.

Values taken from patent publication US10519177B2, “Heterocyclic compounds and uses thereof” (Plexxikon Inc., priority 2013, dated 2019).
